Values joined by “and” are separate entries in the source; they are usually repeats but may differ in a detail not shown here. Equal entries are not always repeated. Toxic doses and inconclusive results are not listed. Rule as the data show it: active = T/C of 150% or more; inactive = T/C below 125%.
Test system: L1210 leukemia ip in BDF1 mice, survival T/C
Assay: NCI In Vivo Anticancer Drug Screen. Data for tumor model L1210 Leukemia (intraperitoneal) in B6D2F1 (BDF1) mice
Settings: endpoint: mean survival time, higher = longer survival
In short: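 Tumor was transplanted into mice, which were then dosed with test compound or vehicle alone. Survival was recorded for each group, and the treated figure was expressed relative to the control figure.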

[1] = dose: 100.0 mg/kg/injection, schedule: Q04DX002 (ip), vehicle: saline with Tween-80
[2] = dose: 200.0 mg/kg/injection, schedule: Q04DX002 (ip), vehicle: saline with Tween-80
[3] = dose: 400.0 mg/kg/injection, schedule: Q04DX002 (ip), vehicle: saline with Tween-80
[4] = dose: 100.0 mg/kg/injection, schedule: Q04DX002 (ip), vehicle: saline
[5] = dose: 200.0 mg/kg/injection, schedule: Q04DX002 (ip), vehicle: saline
[6] = dose: 400.0 mg/kg/injection, schedule: Q04DX002 (ip), vehicle: saline
[7] = dose: 50.0 mg/kg/injection, schedule: Q01DX001 (ip), vehicle: other
[8] = dose: 100.0 mg/kg/injection, schedule: Q04DX003 (ip), vehicle: other
[9] = dose: 200.0 mg/kg/injection, schedule: Q04DX003 (ip), vehicle: other
[10] = dose: 400.0 mg/kg/injection, schedule: Q04DX003 (ip), vehicle: other
[11] = dose: 100.0 mg/kg/injection, schedule: Q04DX003 (ip), vehicle: Klucel (hydroxypropylcellulose) (HPC)
[12] = dose: 200.0 mg/kg/injection, schedule: Q04DX003 (ip), vehicle: Klucel (hydroxypropylcellulose) (HPC)
[13] = dose: 100.0 mg/kg/injection, schedule: Q01DX001 (ip), vehicle: saline with Tween-80
[14] = dose: 200.0 mg/kg/injection, schedule: Q01DX001 (ip), vehicle: saline with Tween-80
[15] = dose: 400.0 mg/kg/injection, schedule: Q01DX001 (ip), vehicle: saline with Tween-80
[16] = dose: 100.0 mg/kg/injection, schedule: Q04DX003 (ip), vehicle: saline
[17] = dose: 200.0 mg/kg/injection, schedule: Q04DX003 (ip), vehicle: saline
[18] = dose: 400.0 mg/kg/injection, schedule: Q04DX003 (ip), vehicle: saline
[19] = dose: 100.0 mg/kg/injection, schedule: Q01DX009 (ip), vehicle: Klucel (hydroxypropylcellulose) (HPC)
[20] = dose: 200.0 mg/kg/injection, schedule: Q01DX009 (ip), vehicle: Klucel (hydroxypropylcellulose) (HPC)
[21] = dose: 400.0 mg/kg/injection, schedule: Q01DX009 (ip), vehicle: Klucel (hydroxypropylcellulose) (HPC)
[22] = dose: 50.0 mg/kg/injection, schedule: Q01DX009 (ip), vehicle: saline with Tween-80
[23] = dose: 100.0 mg/kg/injection, schedule: Q01DX009 (ip), vehicle: saline with Tween-80
[24] = dose: 200.0 mg/kg/injection, schedule: Q01DX009 (ip), vehicle: saline with Tween-80

Measured: T/C

COc1ccc(C(N)=O)cc1
inactive: [1] 94 % of control | [2] 94 % of control | [3] 109 % of control

CC/[N+]([O-])=C/c1ncc([N+](=O)[O-])n1C
inactive: [4] 114 % of control | [5] 118 % of control | [6] 114 % of control

NSc1ccc([N+](=O)[O-])cc1
inactive: dose: 12.5 mg/kg/injection, schedule: Q01DX001 (ip), vehicle: other 102 % of control | dose: 25.0 mg/kg/injection, schedule: Q01DX001 (ip), vehicle: other 97 % of control | [7] 101 % of control | dose: 100.0 mg/kg/injection, schedule: Q01DX001 (ip), vehicle: saline 96 % of control | dose: 200.0 mg/kg/injection, schedule: Q01DX001 (ip), vehicle: saline 97 % of control | dose: 400.0 mg/kg/injection, schedule: Q01DX001 (ip), vehicle: saline 103 % of control

O=C(Cl)C1C(c2ccccc2)C1c1ccccc1 (centres undefined)
inactive: dose: 100.0 mg/kg/injection, schedule: Q04DX003 (ip), vehicle: saline with Tween-80 106 % of control

O=C(O)C(CSSCC(NS(=O)(=O)Cc1ccccc1)C(=O)O)NS(=O)(=O)Cc1ccccc1 (centres undefined)
inactive: [8] 97 % of control | [9] 92 % of control | [10] 93 % of control

C=CS(=O)(=O)c1ccccc1Cl
inactive: [11] 104 % of control | [12] 98 % of control

CC1=C(N)/C(=C(/C)C#N)OC1=O
inactive: [13] 92 % of control | [14] 100 % of control | [15] 92 % of control

Cc1ccc(S(=O)(=O)OCC2OCOC2C2OCOC2CI)cc1 (centres undefined)
inactive: [13] 101 % of control | [14] 101 % of control | [15] 93 % of control

CCN(CC)C(=O)Cn1cc(F)c(NC(C)=O)nc1=O
inactive: [16] 97 % of control | [17] 101 % of control | [18] 101 % of control

COC(=O)c1ccccc1-n1c(-c2ccc([N+](=O)[O-])cc2)csc1=NC(=O)c1cccc([N+](=O)[O-])c1
inactive: [19] 91 % of control | dose: 100.0 mg/kg/injection, schedule: Q04DX002 (ip), vehicle: Klucel (hydroxypropylcellulose) (HPC) 92 % of control | [20] 91 % of control | dose: 200.0 mg/kg/injection, schedule: Q04DX002 (ip), vehicle: Klucel (hydroxypropylcellulose) (HPC) 95 % of control | [21] 88 % of control | dose: 400.0 mg/kg/injection, schedule: Q04DX002 (ip), vehicle: Klucel (hydroxypropylcellulose) (HPC) 100 % of control

O=c1[nH][nH]c(=O)c2ccccc12
inactive: [7] 103 % of control | dose: 100.0 mg/kg/injection, schedule: Q01DX001 (ip), vehicle: other 103 % of control | [19] 111 % of control and 116 % of control | [11] 108 % of control | dose: 200.0 mg/kg/injection, schedule: Q01DX001 (ip), vehicle: other 100 % of control | [20] 106 % of control and 105 % of control | [12] 110 % of control | dose: 400.0 mg/kg/injection, schedule: Q01DX001 (ip), vehicle: other 103 % of control | [21] 100 % of control | dose: 400.0 mg/kg/injection, schedule: Q04DX003 (ip), vehicle: Klucel (hydroxypropylcellulose) (HPC) 104 % of control

NC(=O)C1(Nc2ccc(-c3ccccc3)cc2)CCCC1
inactive: dose: 50.0 mg/kg/injection, schedule: Q01DX001 (ip), vehicle: carboxymethylcellulose (CMC) 96 % of control | dose: 100.0 mg/kg/injection, schedule: Q01DX001 (ip), vehicle: carboxymethylcellulose (CMC) 96 % of control | dose: 200.0 mg/kg/injection, schedule: Q01DX001 (ip), vehicle: carboxymethylcellulose (CMC) 88 % of control | dose: 400.0 mg/kg/injection, schedule: Q01DX001 (ip), vehicle: carboxymethylcellulose (CMC) 90 % of control

O=C(NCCCCCCNC(=O)N(O)C12CC3CC(CC(C3)C1)C2)N(O)C12CC3CC(CC(C3)C1)C2
inactive: dose: 100.0 mg/kg/injection, schedule: Q01DX001 (ip), vehicle: Klucel (hydroxypropylcellulose) (HPC) 95 % of control | dose: 200.0 mg/kg/injection, schedule: Q01DX001 (ip), vehicle: Klucel (hydroxypropylcellulose) (HPC) 90 % of control | dose: 400.0 mg/kg/injection, schedule: Q01DX001 (ip), vehicle: Klucel (hydroxypropylcellulose) (HPC) 90 % of control

N#Cc1ccccc1OCCCOc1ccccc1C#N
inactive: dose: 75.0 mg/kg/injection, schedule: Q01DX009 (ip), vehicle: Klucel (hydroxypropylcellulose) (HPC) 100 % of control | dose: 150.0 mg/kg/injection, schedule: Q01DX009 (ip), vehicle: Klucel (hydroxypropylcellulose) (HPC) 99 % of control | dose: 300.0 mg/kg/injection, schedule: Q01DX009 (ip), vehicle: Klucel (hydroxypropylcellulose) (HPC) 106 % of control

O=Cc1cc2ccccc2cc1O
inactive: [22] 91 % of control | [23] 94 % of control | [24] 97 % of control

Cc1ccc(S(=O)(=O)N(c2cc([N+](=O)[O-])ccc2Br)S(=O)(=O)c2ccc(C)cc2)cc1
inactive: [1] 88 % of control | [2] 98 % of control | [3] 88 % of control

Nc1nc(=S)c2[nH]c(=S)[nH]c2[nH]1
inactive: dose: 12.0 mg/kg/injection, schedule: Q01DX009 (ip), vehicle: saline 119 % of control | dose: 15.0 mg/kg/injection, schedule: Q01DX Z (ip), vehicle: saline 119 % of control | dose: 23.0 mg/kg/injection, schedule: Q01DX Z (ip), vehicle: saline 124 % of control | dose: 175.0 mg/kg/injection, schedule: Q01DX001 (ip), vehicle: saline 121 % of control | dose: 400.0 mg/kg/injection, schedule: Q01DX Z (ip), vehicle: carboxymethylcellulose (CMC) 98 % of control

CCN(CC)C(=O)C1CC=CCC1 (centres undefined)
inactive: [4] 96 % of control | [5] 107 % of control | [6] 93 % of control

COC(=O)C1CCCC(=O)C1C(=O)OC (centres undefined)
inactive: [8] 106 % of control | [9] 97 % of control | [10] 104 % of control

C1CN=C(C2=NCCCN2)NC1
inactive: dose: 100.0 mg/kg/injection, schedule: Q01DX009 (ip), vehicle: saline 107 % of control and 101 % of control | [16] 98 % of control | dose: 200.0 mg/kg/injection, schedule: Q01DX009 (ip), vehicle: saline 98 % of control and 101 % of control | [17] 98 % of control | dose: 400.0 mg/kg/injection, schedule: Q01DX009 (ip), vehicle: saline 92 % of control and 102 % of control | [18] 102 % of control

Cc1ccc2ccccc2c1OC(C)C(=O)O (centres undefined)
inactive: [22] 108 % of control | [23] 95 % of control | dose: 100.0 mg/kg/injection, schedule: Q04DX003 (ip), vehicle: alcohol 95 % of control | [24] 113 % of control | dose: 200.0 mg/kg/injection, schedule: Q04DX003 (ip), vehicle: alcohol 93 % of control

O=C(c1ccccc1)C1(c2ccccc2)SSC1(C(=O)c1ccccc1)c1ccccc1 (centres undefined)
inactive: [16] 95 % of control | [17] 92 % of control | [18] 97 % of control

— PubChem BioAssay AID248 (DTP/NCI, 2004)
